Experimental data: US7279494B2, “Antimicrobial [3.1.0] bicyclohexylphenyl-oxazolidinone derivatives and analogues” (Pfizer Inc., priority 2003, dated 2007)
≈ marks a conversion by molar mass, not a printed value.

Key:
Type in all cases: cell-based
S. pneumoniae UC9912 = experiment: MIC by standard agar dilution, S. pneumoniae UC9912; settings: incubated overnight at 35° C.; for MIC: Streptococcus pneumoniae, UC9912, Mueller Hinton agar
Excerpt: (§1) The in vitro activity of compounds of the subject invention may be assessed by standard testing procedures such as the determination of minimum inhibitory concentration (MIC) by agar dilution as described in “Approved Standard. Methods for Dilution Antimicrobial Susceptibility Tests for Bacteria that Grow Aerobically,” 3rd ed., published 1993 by the National Committee for Clinical Laboratory standards, Villanova, Pa., USA.
(§2) The in vitro MICs of test compounds may be determined by a standard agar dilution method. A stock drug solution of each analog is prepared in a preferred solvent, usually DMSO:H2O (1:3). Serial 2-fold dilutions of each sample are made using 1.0 mL aliquots of sterile distilled water. To each 1.0 mL aliquot of drug is added 9 mL of molten Mueller Hinton agar medium. The drug-supplemented agar is mixed, poured into 15×100 mm petri dishes, and allowed to solidify and dry prior to inoculation.
(§3) Vials of each of the test organisms are maintained frozen in the vapor phase of a liquid nitrogen freezer. Test cultures are grown overnight at 35° C. on the medium appropriate for the organism. Colonies are harvested with a sterile swab, and cell suspensions are prepared in Trypticase Soy broth (TSB) to equal the turbidity of a 0.5 McFarland standard. A 1:20 dilution of each suspension is made in TSB. The plates containing the drug supplemented agar are inoculated with a 0.001 mL drop of the cell suspension using a Steers replicator, yielding approximately 10^4 to 10^5 cells per spot. The plates are incubated overnight at 35° C.
(§4) Following incubation the Minimum Inhibitory Concentration (MIC μg/mL), the lowest concentration of drug that inhibits visible growth of the organism, is read and recorded.

S. aureus UC9213 = experiment: MIC by standard agar dilution, S. aureus UC9213; settings: incubated overnight at 35° C.; for MIC: Staphylococcus aureus, UC9213, Mueller Hinton agar
Excerpt: as §1, §2, §3, §4

H. influenzae 30063 = experiment: MIC by standard agar dilution, H. influenzae 30063; settings: Mueller Hinton agar, incubated overnight at 35° C.; for MIC: Haemophilus influenzae, 30063, agar dilution, read-out: H. influenzae 30063 MIC
Excerpt: as §1, §2, §3, §4

SMILES	MIC (S. pneumoniae UC9912)	MIC (S. aureus UC9213)	MIC (H. influenzae 30063)	S. pneumoniae UC9912 MIC (S. pneumoniae UC9912; Mueller Hinton agar)	S. aureus UC9213 MIC (S. aureus UC9213; Mueller Hinton agar)	H. influenzae 30063 MIC (H. influenzae 30063; agar dilution)
CC(=O)NC[C@H]1CN(c2ccc([C@H]3[C@@H]4CN(C(=O)[C@H](C)O)C[C@@H]43)c(F)c2)C(=O)O1 [Example 29, N-[((5S)-3-{3-fluoro-4-[exo-(1R, 5S)-3-(2-(S)-hydroxypropanoyl)-3-azabicyclo[3.1.0]hex-6-yl]phenyl}-2-oxo-1,3-oxazolidin-5-yl)methyl]acetamide]	2 µg/mL (≈ 4.93 µM)	4 µg/mL (≈ 9.87 µM)	16 µg/mL (≈ 39.5 µM)			
N#CCC(=O)NC[C@H]1CN(c2cc(F)c([C@H]3[C@@H]4C[S+]([O-])C[C@@H]43)c(F)c2)C(=O)O1 (stereo partly drawn) [Example 70, 2-cyano-N-[((5S)-3-{3,5-difluoro-4-[exo-(1R,5S)-3-oxido-3-thiabicyclo[3.1.0]hex-6-yl]phenyl}-2-oxo-1,3-oxazolidin-5-yl)methyl]acetamide]	1 µg/mL (≈ 2.44 µM)	2 µg/mL (≈ 4.89 µM)	4 µg/mL (≈ 9.77 µM)			
CN/C(=C\[N+](=O)[O-])N1C[C@@H]2[C@H](C1)[C@H]2c1ccc(N2C[C@H](CNC(C)=O)OC2=O)cc1F [Example 75, N-[((5S)-3-{3-fluoro-4-[exo-(1R,5S)-3-((E)-1-{methylamino}-2-nitrovinyl)-3-azabicyclo[3.1.0]hex-6-yl]phenyl}-2-oxo-1,3-oxazolidin-5-yl)methyl]acetamide]	2 µg/mL (≈ 4.61 µM)	2 µg/mL (≈ 4.61 µM)	4 µg/mL (≈ 9.23 µM)			
O=C(NC[C@H]1CN(c2cc(F)c([C@H]3[C@@H]4CS(=O)(=O)C[C@@H]43)c(F)c2)C(=O)O1)C1CC1 [Example 62]	1 µg/mL (≈ 2.34 µM)	4 µg/mL (≈ 9.38 µM)	8 µg/mL (≈ 18.8 µM)			
CC(=O)NC[C@H]1CN(c2ccc([C@H]3[C@@H]4CN(C(=O)c5c[nH]cn5)C[C@@H]43)c(F)c2)C(=O)O1 [Example 39, N-[((5S)-3-{3-fluoro-4-[exo-(1R,5S)-3-(1H-imidazole-4-carbonyl)-3-azabicyclo[3.1.0]hex-6-yl]phenyl}-2-oxo-1,3-oxazolidin-5-yl)methyl]acetamide]	1 µg/mL (≈ 2.34 µM)	0.5 µg/mL (≈ 1.17 µM)	4 µg/mL (≈ 9.36 µM)			
O=C(NC[C@H]1CN(c2ccc([C@H]3[C@@H]4C[S+]([O-])C[C@@H]43)c(F)c2)C(=O)O1)C1CC1 (stereo partly drawn) [Example 52, N-[((5S)-3-{3-fluoro-4-[exo-(1R,5S)-3-oxido-3-thiabicyclo[3.1.0]hex-6-yl]phenyl}-2-oxo-1,3-oxazolidin-5-yl)methyl]cyclopropanecarboxamide]	1 µg/mL (≈ 2.55 µM)	4 µg/mL (≈ 10.2 µM)	4 µg/mL (≈ 10.2 µM)			
CC(=O)NC[C@H]1CN(c2cc(F)c([C@H]3[C@@H]4C[S+]([O-])C[C@@H]43)c(F)c2)C(=O)O1 (stereo partly drawn) [Example 12, N-[((5S)-3-{3,5-difluoro-4-[exo-(1R,5S)-3-oxido-3-thiabicyclo[3.1.0]hex-6-yl]phenyl}-2-oxo-1,3-oxazolidin-5-yl)methyl]acetamide]				0.5 µg/mL	1 µg/mL	4 µg/mL
CC(=O)NC[C@H]1CN(c2ccc([C@H]3[C@@H]4CN(C(=O)c5cc[nH]n5)C[C@@H]43)c(F)c2)C(=O)O1 [Example 38, N-[((5S)-3-{3-fluoro-4-[exo-(1R,5S)-3-(1H-pyrazole-3-carbonyl)-3-azabicyclo[3.1.0]hex-6-yl]phenyl}-2-oxo-1,3-oxazolidin-5-yl)methyl]acetamide]	2 µg/mL (≈ 4.68 µM)	2 µg/mL (≈ 4.68 µM)	8 µg/mL (≈ 18.7 µM)			
N#CCC(=O)NC[C@H]1CN(c2ccc([C@H]3[C@@H]4CS(=O)(=O)C[C@@H]43)c(F)c2)C(=O)O1 [Example 69, 2-cyano-N-[((5S)-3-{3-fluoro-4-[exo-(1R,5S)-3,3-dioxido-3-thiabicyclo[3.1.0]hex-6-yl]phenyl}-2-oxo-1,3-oxazolidin-5-yl)methyl]acetamide]	4 µg/mL (≈ 9.82 µM)	4 µg/mL (≈ 9.82 µM)	8 µg/mL (≈ 19.6 µM)			
CC(=O)NC[C@H]1CN(c2ccc([C@H]3[C@@H]4CN(C(=O)CN)C[C@@H]43)c(F)c2)C(=O)O1 [Example 35, N-[((5S)-3-{3-fluoro-4-[exo-(1R,5S)-3-aminoacetyl-3-azabicyclo[3.1.0]hex-6-yl]phenyl}-2-oxo-1,3-oxazolidin-5-yl)methyl]acetamide]	2 µg/mL (≈ 5.12 µM)	8 µg/mL (≈ 20.5 µM)	16 µg/mL (≈ 41 µM)			
CC(=O)NC[C@H]1CN(c2ccc([C@H]3[C@@H]4CS(=O)(=O)C[C@@H]43)cc2)C(=O)O1 [Example 19, N-[((5S)-3-{4-[exo-(1R,5S)-3,3-dioxido-3-thiabicyclo[3.1.0]hex-6-yl]phenyl}-2-oxo-1,3-oxazolidin-5-yl)methyl]acetamide]	1 µg/mL (≈ 2.74 µM)	4 µg/mL (≈ 11 µM)	8 µg/mL (≈ 22 µM)			
CC(=O)NC[C@H]1CN(c2ccc([C@H]3[C@@H]4CN(CCO)C[C@@H]43)c(F)c2)C(=O)O1 [Example 47, N-[((5S)-3-{3-fluoro-4-[exo-(1R,5S)-3-(2-hydroxyethyl)-3-azabicyclo[3.1.0]hex-6-yl]phenyl}-2-oxo-1,3-oxazolidin-5-yl)methyl]acetamide]	1 µg/mL (≈ 2.65 µM)	4 µg/mL (≈ 10.6 µM)	8 µg/mL (≈ 21.2 µM)			
CC(=O)NC[C@H]1CN(c2ccc([C@H]3[C@@H]4CN(C(=O)c5cn[nH]c5)C[C@@H]43)c(F)c2)C(=O)O1 [Example 40, N-[((5S)-3-{3-fluoro-4-[exo-(1R,5S)-3-(1H-pyrazole-4-carbonyl)-3-azabicyclo[3.1.0]hex-6-yl]phenyl}-2-oxo-1,3-oxazolidin-5-yl)methyl]acetamide]	2 µg/mL (≈ 4.68 µM)	4 µg/mL (≈ 9.36 µM)	16 µg/mL (≈ 37.4 µM)			
CN/C(=N\C#N)N1C[C@@H]2[C@H](C1)[C@H]2c1ccc(N2C[C@H](CNC(C)=O)OC2=O)cc1F [Example 73, exo-(1R,5S)-N′-cyano-6-(4-{(5S)-5-[(acetylamino)methyl]-2-oxo-1,3-oxazolidin-3-yl}-2-fluorophenyl)-N-methyl-3-azabicyclo[3.1.0]hexane-3-carboximidamide]	1 µg/mL (≈ 2.41 µM)	2 µg/mL (≈ 4.83 µM)	4 µg/mL (≈ 9.65 µM)			
CC(=O)NCC(=O)N1C[C@@H]2[C@H](C1)[C@H]2c1ccc(N2C[C@H](CNC(C)=O)OC2=O)cc1F [Example 36, N-[((5S)-3-{3-fluoro-4-[exo-(1R,5S)-3-acetylaminoacetyl-3-azabicyclo[3.1.0]hex-6-yl]phenyl}-2-oxo-1,3-oxazolidin-5-yl)methyl]acetamide]	4 µg/mL (≈ 9.25 µM)	8 µg/mL (≈ 18.5 µM)	32 µg/mL (≈ 74 µM)			

More lines, in order of falling MIC (S. pneumoniae UC9912), values ahead:

MIC (S. pneumoniae UC9912)	MIC (S. aureus UC9213)	MIC (H. influenzae 30063)	SMILES	S. pneumoniae UC9912 MIC (S. pneumoniae UC9912; Mueller Hinton agar)	S. aureus UC9213 MIC (S. aureus UC9213; Mueller Hinton agar)	H. influenzae 30063 MIC (H. influenzae 30063; agar dilution)
1 µg/mL (≈ 2.51 µM)	1 µg/mL (≈ 2.51 µM)	2 µg/mL (≈ 5.02 µM)	CCC(=O)NC[C@H]1CN(c2cc(F)c([C@H]3[C@@H]4C[S+]([O-])C[C@@H]43)c(F)c2)C(=O)O1 (stereo partly drawn) [Example 58, N-[((5S)-3-{3,5-difluoro-4-[exo-(1R,5S)-3-oxido-3-thiabicyclo[3.1.0]hex-6-yl]phenyl}-2-oxo-1,3-oxazolidin-5-yl)methyl]propanamide]			
0.5 µg/mL (≈ 1.25 µM)	1 µg/mL (≈ 2.5 µM)	8 µg/mL (≈ 20 µM)	CC(=O)NC[C@H]1CN(c2cc(F)c([C@H]3[C@@H]4CS(=O)(=O)C[C@@H]43)c(F)c2)C(=O)O1 [Example 13, N-[((5S)-3-{4-[exo-(1R,5S)-3,3-dioxido-3-thiabicyclo[3.1.0]hex-6-yl]-3,5-difluorophenyl}-2-oxo-1,3-oxazolidin-5-yl)methyl]acetamide]			
0.5 µg/mL (≈ 1.42 µM)	2 µg/mL (≈ 5.68 µM)	16 µg/mL (≈ 45.4 µM)	CC(=O)NC[C@H]1CN(c2cc(F)c([C@H]3[C@@H]4COC[C@@H]43)c(F)c2)C(=O)O1 [Example 14, N-[((5S)-3-{3,5-difluoro-4-[exo-(1R,5S)-3-oxabicyclo[3.1.0]hex-6-yl]phenyl}-2-oxo-1,3-oxazolidin-5-yl)methyl]acetamide]			
0.5 µg/mL (≈ 1.5 µM)	4 µg/mL (≈ 12 µM)	4 µg/mL (≈ 12 µM)	CC(=O)NC[C@H]1CN(c2ccc([C@H]3[C@@H]4COC[C@@H]43)c(F)c2)C(=O)O1 [Example 4, N-[((5S)-3-{3-fluoro-4-[exo-(1R,5S)-3-oxabicyclo[3.1.0]hex-6-yl]phenyl}-2-oxo-1,3-oxazolidin-5-yl)methyl]acetamide]			
0.5 µg/mL (≈ 1.33 µM)	2 µg/mL (≈ 5.31 µM)	4 µg/mL (≈ 10.6 µM)	CC(=O)NC[C@H]1CN(c2ccc([C@H]3[C@@H]4CN(C(N)=O)C[C@@H]43)c(F)c2)C(=O)O1 [Example 10, exo-(1R,5S)-6-(4-{(5S)-5-[(acetylamino)methyl]-2-oxo-1,3-oxazolidin-3-yl}-2-fluorophenyl)-3-azabicyclo[3.1.0]hexane-3-carboxamide]			
0.25 µg/mL (≈ 0.64 µM)	1 µg/mL (≈ 2.56 µM)	4 µg/mL (≈ 10.2 µM)	CCC(=O)NC[C@H]1CN(c2ccc([C@H]3[C@@H]4CN(C(N)=O)C[C@@H]43)c(F)c2)C(=O)O1 [Example 23, exo-(1R,5S)-6-(4-{(5S)-5-[(propanoylamino)methyl]-2-oxo-1,3-oxazolidin-3-yl}-2-fluorophenyl)-3-azabicyclo[3.1.0]hexane-3-carboxamide]			
0.25 µg/mL (≈ 0.564 µM)	0.5 µg/mL (≈ 1.13 µM)	4 µg/mL (≈ 9.02 µM)	O=C(CO)N1C[C@@H]2[C@H](C1)[C@H]2c1ccc(N2C[C@H](CNC(=S)C(F)F)OC2=O)cc1F [Example 6, 2,2-difluoro-N-[((5S)-3-{3-fluoro-4-[exo-(1R,5S)-3-gycoloyl-3-azabicyclo[3.1.0]hex-6-yl]phenyl}-2-oxo-1,3-oxazolidin-5-yl)methyl]ethanethioamide]			
